# In patent publication US9034906B2, “EP4 agonist” (Asahi Glass Company, Limited, priority 2008, dated 2015):
# Experiments:
# [1] = Effect on blood pressure and heart rate in mice; type: in vivo, mouse; settings: ICR mice, intravenous 0.01 mg/kg, isoflurane anesthesia
# Method: Male ICR mice (5 weeks old, Japan SLC) were purchased, acclimated for 6 days and used for the test. The animals were treated and measured under isoflurane inhalation anesthesia (anesthesia introduced at 2.5%, maintained at 1.8-2.1%), while body temperature was kept at 37° C. with a Heat Controller (ATC-402, Unique Medical Co., Ltd.). A catheter for administration of test compounds was inserted into the left femoral vein, and another catheter was inserted into the right femoral artery and connected to a pressure transducer to record each parameter of hemodynamics.
# Compound F, the carboxylate form of compound F and BPS were intravenously administered at a dose of 0.01 mg/5 mL/kg, and the effect on the mean blood pressure and heart rate was evaluated with computer software for the analysis of hemodynamics (Fluclet, Dainippon Sumitomo Pharma Co., Ltd.). To the control group was intravenously administered a solvent (1.2% ethanol solution) at 5 mL/kg in the same manner. The results are expressed as a ratio of change in each parameter before and after the drug administration. Three to 6 animals were used for each group, and the results were expressed as average±standard deviation.
# [2] = tested on: dextran sodium sulfate-induced colitis; experiment: Dextran sodium sulfate-induced colitis model in mice (C57BL/6); type: in vivo, mouse; settings: C57BL/6 mice, DSS, oral 0.3 mg/kg once a day
# Method: Whether or not an IP agonist has an effect on such colitis model was determined using a selective IP agonist, BPS.
# Female C57BL/6 mice (6 weeks old, Japan SLC) were purchased, acclimated for 1 week and used for the study. Except the normal group, the mice were allowed to freely drink a 3 or 2 w/v % DSS (MP Biochemicals, Lot No. 5653H and 5464H, respectively) solution for 1 week to induce colitis. BPS at a dose of 0.3 mg/kg and compound F at doses of 0.3 and 1 mg/kg were orally administered once a day, daily, from the start day of DSS drinking (day 0) to one day before autopsy (day 9). To the control group was orally administered a solvent (1 vol % ethanol solution) at 10 mL/kg in the same manner. The consistency of the stool was graded from score 0 to 4, with normal (0), partly loose stool (1), loose stool (2) and diarrhea (4). The blood feces was also graded from score 0 to 4, with normal (0), partly blood feces (1), blood feces (2) and blood feces plus proctorrhagia (4). The sum of both grades was defined as the stool score (maximum 8). Furthermore, the length of the large intestine was measured in the same manner as in Example 23. Six to 10 animals were used for each group, and the results are shown in average±standard deviation.
# [3] = tested on: anti-Thy-1 antibody-induced glomerulonephritis; experiment: Anti-Thy-1 antibody-induced glomerulonephritis model in rats; type: in vivo, rat; settings: Wistar rats, oral 0.3 mg/kg twice a day
# Method: Male Slc: Wistar rats (6 weeks old, Japan SLC) were purchased, acclimated for 1 week and used for the study. Except the normal group, anti-Thy-1 antibody (mouse anti-CD90 antibody (UK-Serotech Ltd. Code:MCA47XZ, clone No: MRC OX-7, Lot No. 0303)) was administered once intravenously to the animals. A mixture of compound F and compound J (F:J=52:41, indicated as compound F/J) was orally administered from the day of the antibody administration (day 0) to day 6, daily, twice a day (morning and evening; each 0.3 mg/kg). After 3 days from the antibody administration, urine was collected for one day. On day 7 of the antibody administration, the animal was autopsied. The right kidney was isolated, weighed and fixed with formalin. Five to 8 animals were used for each group and the results were expressed as average±standard deviation.
# human EP4 = target: T1, human EP4 (Homo sapiens, UniProt P35408); experiment: Receptor affinity, tritium-labeled PGE2 binding to membranes of transfected COS-7 cells; settings: binding affinity ratio
# T1 construct: expressed in transfected cells; host or cells: COS-7 (membranes)
# Method: PG receptor affinity of compound F and compound J of the present invention was evaluated. Compound F used was one synthesized in Example 9, and compound J was prepared by separating and purifying the compound synthesized in Example 14 with a column (the same preparations were used in the following Examples). COS-7 cells were transfected with the genes of mouse EP4, human EP1-4 or human IP to overexpress the receptor and then the cell membranes were collected. […] The dissociation constant Kd value was obtained and inhibition constant Ki value of each test compound was determined in a conventional method.
# [4] = In vitro metabolic stability: NADPH-independent β oxidation reaction in rat liver mitochondria fraction; type: in vitro ADME; settings: 37° C., 30 min, tested as isomer mixtures, average±SD of 3 experiments
# Method: A mixture of the compound F and compound J of the present invention described in Table 1 (F:J=52:41, synthesized in Example 14), and a mixture of compounds wherein the tetrazole groups at C-1 of compound F and compound J are respectively substituted by carboxylic acid (referred to as carboxylate form, F:J=54:34, synthesized in Example 15) were tested.
# First, a mitochondria fraction was prepared from the rat liver according to the following Reference A. Then, in reference to the method of […] et al. described in the following References B and C, an NADPH-independent β oxidation reaction was studied. The reaction was carried out at 37° C. for 30 min, and stopped with a methanol solution containing a suitable internal standard substance. Each compound was quantified by the internal standard method using a high performance liquid chromatography mass spectrometry apparatus (LC-MS/MS). The compound residual ratio after metabolic reaction of compounds F, J and each carboxylate form thereof in rat mitochondria fraction is shown in the following Table 2 in average±standard deviation of 3 experiments.
# [5] = tested on: dextran sodium sulfate-induced colitis; experiment: Remission/relapse model of dextran sodium sulfate-induced colitis in mice, therapeutic; type: in vivo, mouse; settings: compound F 1 mg/kg, SASP 100 mg/kg, oral once a day for 50 days
# Description: Next, therapeutic effect of compound F on colitis was studied in a chronic model. Female BALB/c mice, 6 weeks old, body weight about 20 g (Japan SLC) were purchased, acclimated for 1 week and used for the study. The mice were divided into a colitis induction group and a normal group. The colitis induction group was allowed to freely drink a 2.6 w/v % DSS (MP Biochemicals, M.W. 36,000-50,000, Lot No. 4556J) solution to induce colitis. On day 8 when the stool score (defined in Example 23) of the colitis induction group reached about 4.5, the mice were subdivided into a control group, a compound F 1 mg/kg administration group and a salazosulfapyridine (SIGMA, Lot No. 085K1930, hereinafter to be abbreviated as SASP) 100 mg/kg administration group. Then the mice were allowed to freely drink distilled water instead of DSS solution for 9 days (remission period). After the grouping, the stool score was evaluated every 3-4 days. […]
# Compound F at a dose of 1 mg/kg and SASP at a dose of 100 mg/kg were orally administered once a day, daily, for 50 days from the initial remission period (day 8 from the start of 2.6 w/v % DSS drinking) to the fifth remission period (day 57 from the start of 2.6 w/v % DSS drinking). […] The remission ratio (%) was calculated as a ratio of mice in remission in each group. […]
# [6] = tested on: concanavalin A-induced hepatitis; experiment: Concanavalin A-induced hepatitis model in mice, prophylactic; type: in vivo, mouse; settings: BALB/c mice, oral 1 hr before Con A; compound F 1 mg/10 mL/kg, prednisolone 5 mg/10 mL/kg
# Method: The prophylactic effect of compound F on hepatitis was investigated using concanavalin A (hereinafter Con A)-induced hepatitis model.
# BALB/c mice (female, 7 weeks old, Japan SLC) were purchased, acclimated for 1 week and used for the study. Except the no-induction group, Con A (type IV, Sigma-Aldrich) dissolved in saline was administered from the tail vein of the mice at a dose of 12.5 mg/10 mL/kg to induce hepatitis. Twenty hr later, the mice were subjected to laparotomy under ether anesthesia. A 0.5 mL of blood sample was collected from the caudal vena cava and heparinized plasma was obtained to measure plasma ALT and AST activities. Test substances were compound F (1 mg/10 mL solution), prednisolone (Nacalai Tesque, 5 mg/10 mL suspension (with 0.5 w/v % methylcellulose)) and water for injection (administered to the control group), which were orally administered at a volume of 10 mL/kg 1 hr before Con A injection. Seven to 9 animals were used for each group. After logarithmic transformation of the data, one-way analysis of variance was performed for statistical evaluation.
# T cell transfer colitis = experiment: CD4+CD25- T cell transfer colitis model in mice; type: in vivo, mouse; settings: C.B-17/Icr-scid mice, oral 1 mg/kg once a day
# Description: The effect on Crohn's disease, another type of inflammatory bowel disease, was studied. T cell transfer model is well known as a Crohn's disease model, which develops chronic […] or enteritis (see: References F, G, H). In addition, it can also be regarded as an animal model of intestinal Behcet's disease or simple ulcer, suffering from similar intestinal ulcer accompanied by activation of T cells (see: References I, J).
# Female BALB/cA Jcl mice, 6 weeks old, body weight 19-23 g (CLEA Japan, Inc.) and female C.B-17/Icr-scid mice (6 weeks old, CLEA Japan, Inc.) were purchased, acclimated for 1 week and used for the study.
# After laparotomy under ether anesthesia, BALB/cA Jcl mice were exsanguinated to death through the abdominal aorta and caudal vena cava, and the spleen was isolated. Splenocytes were prepared from the spleen and then CD4^+CD25^− T cells were prepared with a CD4^+ T cell Isolation Kit (No. 130-090-860, Milky Biotech Co., Ltd.) and CD25-Biotin antibody (No. 130-092-569, Milky Biotech Co., Ltd.). The cells were separated using the autoMACS Separator (Milky Biotech Co., Ltd.). The separated CD4^+CD25^− T cells were suspended in physiological phosphate buffer solution, and 2.5×10^5 cells per animal were intraperitoneally administered to C.B-17/Icr-scid mice to induce colitis.
# One mg/kg of compound F or prednisolone was initially administered at 5 hr before transfer of CD4^+CD25^− T cells, and orally administered thereafter once a day, daily, for 20 days. To the control group was orally administered a solvent (1 vol % ethanol solution) at 10 mL/kg. A clinical endpoint was the sum of stool consistency score (0-5), fecal occult blood score (0-4) and body weight decrease score (0-5), termed as the Disease Activity Index score (hereinafter to be abbreviated as DAI score: highest score 14). The stool consistency score was graded for the hardness of stool as normal (0), slightly loose (1), somewhat loose (2), loose (3), considerably loose (4) and diarrhea (5). The fecal occult blood score was evaluated in the same manner as in Example 23. The body weight decrease score was graded for the changes in the body weight as increase (0), decrease of less than 3% (1), decrease of not less than 3% and less than 6% (2), decrease of not less than 6% and less than 9% (3), decrease of not less than 9% and less than 12% (4), and decrease of not less than 12% (5). Eight to 10 mice were used for each group and the results were expressed as average.
# T1 sequence (P35408 whole entry): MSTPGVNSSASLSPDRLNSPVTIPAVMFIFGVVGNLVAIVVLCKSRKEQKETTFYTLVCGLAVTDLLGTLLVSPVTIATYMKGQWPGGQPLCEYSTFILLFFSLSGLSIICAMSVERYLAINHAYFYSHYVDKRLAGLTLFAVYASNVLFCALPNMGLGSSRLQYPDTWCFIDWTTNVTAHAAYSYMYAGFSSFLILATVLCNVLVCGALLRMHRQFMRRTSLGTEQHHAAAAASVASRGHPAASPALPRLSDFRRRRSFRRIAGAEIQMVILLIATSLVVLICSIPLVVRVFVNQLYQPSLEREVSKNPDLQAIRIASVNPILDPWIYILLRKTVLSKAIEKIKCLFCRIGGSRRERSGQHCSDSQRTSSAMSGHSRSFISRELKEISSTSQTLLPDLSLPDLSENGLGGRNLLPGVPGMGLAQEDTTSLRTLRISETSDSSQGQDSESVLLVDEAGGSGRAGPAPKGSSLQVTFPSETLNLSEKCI
compound,measurement,setting,value
"CC#CCC(C)[C@H](O)/C=C/[C@@H]1[C@H]2c3cccc(CCCC(=O)O)c3O[C@H]2C[C@H]1O (mixture of isomers) [BPS, beraprost sodium, reference compound]",Effect on heart rate,[1],on the increase and remained high even after 10 min
same,Maximum decrease ratio of mean blood pressure,[1],38%
same,Effect on shortening of the large intestine,[2],no effect
same,Effect on stool score,[2],tendency toward aggravation
"Cc1cccc(C(C)[C@H](O)/C=C/[C@@H]2[C@@H]3[C@H](C[C@H]2O)O/C(=C\CCCc2nnn[nH]2)C3(F)F)c1 (mixture of isomers) [compound F/J, 4-[(Z)-(1S,5R,6R,7R)-6-[(1E,3R,4RS)-3-hydroxy-4-(m-tolyl)-1-pentenyl]-7-hydroxy-2-oxa-4,4-difluoro-bicyclo[3.3.0]octan-3-ylidene]-1-(tetrazol-5-yl)butane]",24-hr urine protein,[3],lower value than control
same,24-hr urine volume,[3],of the same level as the normal group
same,Body weight,[3],shift similar to that of the control group
same,Relative kidney weight,[3],lower than control and near the normal
same,"Renal histopathology: total glomerular cells, mesangial region and PCNA-positive cells in the glomerulus",[3],significantly suppressed the increase
"Cc1cccc([C@H](C)[C@H](O)/C=C/[C@@H]2[C@@H]3[C@H](C[C@H]2O)O/C(=C\CCCc2nnn[nH]2)C3(F)F)c1 [Compound J, 4-[(Z)-(1S,5R,6R,7R)-6-[(1E,3R,4S)-3-hydroxy-4-(m-tolyl)-1-pentenyl]-7-hydroxy-2-oxa-4,4-difluoro-bicyclo[3.3.0]octan-3-ylidene]-1-(tetrazol-5-yl)butane]",Affinity for human EP4 higher than to human IP,human EP4,40 fold
same,Residual ratio of parent compound after β-oxidation reaction,[4],90.1 ± 6.9%
"O=C(O)c1cc(/N=N/c2ccc(S(=O)(=O)Nc3ccccn3)cc2)ccc1O [SASP, salazosulfapyridine, reference compound]",Effect on stool score in remission and relapse periods,[5],did not show a clear effect
"C[C@]12C=CC(=O)C=C1CC[C@@H]1[C@@H]2[C@@H](O)C[C@@]2(C)[C@H]1CC[C@]2(O)C(=O)CO [prednisolone, reference compound]",Effect on increase of plasma ALT and plasma AST activities,[6],significantly and strongly suppressed the increase
same,Effect on body weight decrease score,T cell transfer colitis,clearly worsened the score
same,Effect on fecal occult blood score,T cell transfer colitis,suppressed an increase in the fecal occult blood score by almost the same level as the compound F administration
same,Effect on stool consistency score,T cell transfer colitis,failed to show a clear effect
